Measurements taken from patent publication US20090318396A1, “CORTICOSTEROID LINKED BETA-AGONIST COMPOUNDS FOR USE IN THERAPY” (priority 2008, published 2009).

Columns and labels:
[1] = tested on: Ascaris suum antigen-induced bronchoconstriction and airway hyperreactivity; experiment: Ascaris suum-induced pulmonary responses in sheep; assay type: in vivo
Description: One breath unit is defined as one breath of a 1% w/v carbachol solution. Test article was administered either by a pre-dosing or duration of action protocol. In the pre-dosing regimen, animals were dosed once daily for four days, with the last dose administered 1 hr before antigen. In the duration of action regimen, animals were dosed once daily for four days, with the last dose administered 24 hours before antigen. Test article, Ascaris antigen, and carbachol were administered by nebulized aerosol to intubated sheep.

[2] = tested on: tobacco-smoke-induced airway inflammation; experiment: Tobacco smoke model of airway inflammation in mice; assay type: in vivo, female C3H mice; conditions: for IL-1α / MIP-1α / Neutrophils: mean ± s.e.m.
Description: Vehicle and test articles are delivered by intratracheal instillation in 10% ethanol water to animals anesthetized with 3-5% isoflurane (n=8 animals per test article group). All compounds will be delivered on a daily (5 days per week) schedule for 3 weeks during the smoke exposures. Mice were exposed to cigarette smoke for 6 hours per day, 5 days per week for 3 weeks, in H1000 or H2000 chambers. Type 2R4F research cigarettes (Kentucky Tobacco Research and Development Center) were used in the study. Total particulate material (TPM) exposure was kept at […] for the first week to allow animals to reduce adverse effects during adaptation to smoke exposure. TPM exposure was maintained between 100 and 250 mg TPM/m^3 during the remainder of the study. After 3 weeks, animals were euthanized and bronchoalveolar lavage fluid was obtained for cell differentials and cytokine analysis by Luminex multiplex immunoassay.

[3] = Drug levels in plasma, BALF and lung after IT administration in the rat; conditions: IT
Description: Compounds of Examples 52 and 83 were formulated for intratracheal (IT) dosing in 10% EtOH, 90% Sterile Water, and dosed in male Sprague-Dawley rats at 3 mg/kg (Example 52) and 1 mg/kg (Example 83). Each dosing group consisted of 3 male, naïve purebred Sprague-Dawley rats. At dosing, the animals weighed ˜0.30 kg. The animals were fasted overnight prior to dose administration and up to 2 hr after dosing. The compounds were administered IT using a Penn Century Microsprayer (Model 1A-1B).
Blood samples were collected at 0.5, 2, and 4 hours post-dose. Each blood sample (0.5-0.6 mL per sample) was collected via the orbital sinus (following anesthesia for BAL procedure) into tubes containing EDTA anti-coagulant into containers surrounded by dry ice at 0.5, 2 and 4 hr (mean, n=6). Blood samples were stored at −20±5° C. until shipped for analysis.
The animals were anesthetized with an intramuscular (IM) injection of a ketamine/xylazine/acepromazine (80/10/2 mg/kg) cocktail at a dose volume of 1.1 mL/kg. A cannula (modified Bard® infant feeding tube) was inserted into the trachea. Warmed sterile saline was injected into the lungs. The lungs were gently massaged by palpation of the chest for approximately 45 seconds. The fluid (BALF) was recovered and placed on ice. The procedure was repeated two more times, and all three BALF samples pooled. The fluid was centrifuged under refrigerated conditions at 350 g for 10 minutes. The supernatant and cell pellet were collected and stored at approximately −70° C. until shipped for analysis.
Immediately following each BAL procedure, the lungs from each animal were removed, blotted dry, weighed, and stored frozen at −70° C. until shipped for analysis.
An LC/MS/MS method was used to measure the concentration of compound in plasma.
Add 3×w/v of 1×PBS buffer (90:10-PBS:ACN) to each lung tissue. Homogenize the sample w/Polytron (PT1200) and take 50 uL of supernatant and inject to LC/MSMS.
An aliquot of 50 μL of each plasma sample was treated with 100 mL of acetonitrile (ACN) containing internal standard. After the protein precipitation, an aliquot of 100 μL of the supernatant was transferred to a clean 96-well plate and mixed with 100 μL of water. An aliquot of 30 μL of the above solution was injected to the TSQ Ultra Quantum LC/MS/MS system.
A HyPurity C18 HPLC column (30×2.1 mm, 5μ) from ThermoHypersil (Part #: 22105-032130) was used. Mobile phase A contained 1% acetonitrile in 10 mM ammonium formate aqueous solution with 1% formic acid. Mobile phase B contained 80% acetonitrile in 10 mM ammonium formate with 1% formic acid. An Agilent 1100 series binary pump (P/N G1312A Bin Pump) was used for elution and separation. HTS Pal autosampler from LEAP Technologies, Carrboro, N.C. was used.
TSQ Quantum Ultra triple quadrupole mass spectrometer from Thermo Finnigan, San Jose, Calif. was used in selective reaction monitoring (SRM) operation mode, Tune file:

[4] = tested on: ragweed-induced bronchoconstriction; experiment: Ragweed-induced bronchoconstriction in dogs; assay type: in vivo, beagle dogs; conditions: mean ± s.e.m.
Description: The compound of Example 52 was assesed for bronchodilator activity in a ragweed-induced bronchoconstriction model in beagle dogs. Dogs were mechanically ventilated during each experiment. Airflow and tidal volume were measured using a differential pressure transducer located in front of the endotracheal tube. An esophageal balloon catheter placed in the esophagus was used to determine transpulmonary pressure. Pulmonary resistance and dynamic lung compliance were calculated from the simultaneous measurement of transpulmonary pressure and respiratory flow. The canine exposure system was designed to expose an anesthetized animal via an intubation tube. Dogs were administered vehicle or test article by inhalation 30 minutes before ragweed antigen exposure (n=4). Dogs were challenged with ragweed antigen (ragweed short, Ambrosia artemisifolia, Greer, Lenoir, N.C.) by inhalation (5 breaths). Immediately following ragweed challenge, changes in pulmonary resistance and compliance were measured for up to 30 minutes.

[5] = tested on: carbachol-induced bronchoconstriction; experiment: Carbachol-induced bronchoconstriction in sheep; assay type: in vivo; conditions: Example 52 4.7 mg, Salmeterol 2.5 mg, mean ± s.e.m, n=4
Description: Bronchoconstriction was evaluated as a function of increased pulmonary resistance following carbachol challenge. […] Test article was administered either by a pre-dosing or duration of action protocol. In the pre-dosing regimen, animals were dosed once daily for four days, with the last dose administered 1 hr before carbachol challenge. In the duration of action regimen, animals were dosed once daily for four days, with the last dose administered 24 hours before carbachol challenge. Test article and carbachol were administered by nebulized aerosol to intubated sheep.

[6] = tested on: LPS-induced airway inflammation; experiment: LPS-induced airway inflammation in rats; assay type: in vivo, Male Fischer 344 rats; conditions: for TNFα / Neutrophils: rat BAL, mean ± s.e.m.
Description: Example 52 was evaluated in an LPS-induced airway inflammation model in rats. Male Fischer 344 rats (n 8/group) were treated with either vehicle or test article by intratracheal instillation in […] volume 1 hour prior to LPS challenge. Animals were then exposed to LPS by nose-only inhalation exposure for 10 minutes at 5 mg/m^3 resulting in an estimated 5 μg lung deposition. Animals were sacrificed 4 hours after LPS exposure. Lungs were lavaged for bronchoalveolar lavage cell differentials and cytokine analysis by Luminex multiplex immunoassay.

## CC[N+](CC)(CC(=O)OCC(=O)[C@@]12O[C@H](C3CCCCC3)O[C@@H]1C[C@H]1[C@@H]3CCC4=CC(=O)C=C[C@]4(C)[C@H]3[C@@H](O)C[C@@]12C)Cc1cc(C(O)CNCCCCCCOCCCCc2ccccc2)ccc1OP(=O)(O)O.[Cl-] (stereo partly drawn) [Example 52, [5-[1-hydroxy-2-[6-(4-phenylbutoxy)hexylamino]ethyl]-2-phosphonooxybenzyl]-(diethyl)-[[11β,16α]-[[15,16-((R)-cyclohexylmethylene)bis(oxy)]-11-hydroxypregna-1,4-diene-3,20-dion-21-yl]carbonylmethyl]ammonium chloride]
[1]; Duration of action regimen (last dose 24 hours before antigen), Post-Ascaris, Example 52 4.7 mg, ciclesonide 2.2 mg, salmeterol xinafoate 2.5 mg, n=4
  Bronchoconstriction, Lung Resistance (% Increase): 226 % Increase
[1]; Duration of action regimen, 1 hour, n=4
  Bronchoconstriction, Lung Resistance (% Increase): 95 % Increase
[1]; Duration of action regimen, 2 hours, n=4
  Bronchoconstriction, Lung Resistance (% Increase): 47 % Increase
[1]; Duration of action regimen, 3 hours, n=4
  Bronchoconstriction, Lung Resistance (% Increase): 17 % Increase
[1]; Duration of action regimen, 4 hours, n=4
  Bronchoconstriction, Lung Resistance (% Increase): 14 % Increase
[1]; Duration of action regimen, 5 hours, n=4
  Bronchoconstriction, Lung Resistance (% Increase): 25 % Increase
[1]; Duration of action regimen, 6 hours, n=4
  Bronchoconstriction, Lung Resistance (% Increase): 31 % Increase
[1]; Duration of action regimen, 6.5 hours, n=4
  Bronchoconstriction, Lung Resistance (% Increase): 26 % Increase
[1]; Duration of action regimen, 7 hours, n=4
  Bronchoconstriction, Lung Resistance (% Increase): 26 % Increase
[1]; Duration of action regimen, 7.5 hours, n=4
  Bronchoconstriction, Lung Resistance (% Increase): 20 % Increase
[1]; Duration of action regimen, 8 hours, n=4
  Bronchoconstriction, Lung Resistance (% Increase): 22 % Increase
[1]; Duration of action regimen, Baseline, Example 52 4.7 mg, ciclesonide 2.2 mg, salmeterol xinafoate 2.5 mg, n=4
  Hyperreactivity PC400: 27.8 carbachol breath units
[1]; Duration of action regimen, Post-Antigen, n=4
  Hyperreactivity PC400: 28 carbachol breath units
[1]; Predosing regimen (last dose 1 hr before antigen), Post-Ascaris, Example 52 4.7 mg, ciclesonide 2.2 mg, n=2
  Bronchoconstriction, Lung Resistance (% Increase): 220 % Increase
[1]; Predosing regimen, 1 hour, n=2
  Bronchoconstriction, Lung Resistance (% Increase): 118 % Increase
[1]; Predosing regimen, 2 hours, n=2
  Bronchoconstriction, Lung Resistance (% Increase): 69 % Increase
[1]; Predosing regimen, 3 hours, n=2
  Bronchoconstriction, Lung Resistance (% Increase): 34 % Increase
[1]; Predosing regimen, 4 hours, n=2
  Bronchoconstriction, Lung Resistance (% Increase): 9 % Increase
[1]; Predosing regimen, 5 hours, n=2
  Bronchoconstriction, Lung Resistance (% Increase): 24 % Increase
[1]; Predosing regimen, 6 hours, n=2
  Bronchoconstriction, Lung Resistance (% Increase): 34 % Increase
[1]; Predosing regimen, 6.5 hours, n=2
  Bronchoconstriction, Lung Resistance (% Increase): 19 % Increase
[1]; Predosing regimen, 7 hours, n=2
  Bronchoconstriction, Lung Resistance (% Increase): 23 % Increase
[1]; Predosing regimen, 7.5 hours, n=2
  Bronchoconstriction, Lung Resistance (% Increase): 28 % Increase
[1]; Predosing regimen, 8 hours, n=2
  Bronchoconstriction, Lung Resistance (% Increase): 14 % Increase
[1]; Predosing regimen, Baseline, Example 52 4.7 mg, ciclesonide 2.2 mg, n=2
  Hyperreactivity PC400: 27.5 carbachol breath units
[1]; Predosing regimen, Post-Antigen (24 hours after challenge), n=2
  Hyperreactivity PC400: 26.0 carbachol breath units
[1]; duration of action regimen
  Effect on early phase bronchoconstriction: reduction
  Effect on late phase bronchoconstriction and development of airway hyperreactivity: complete inhibition
[2]; 0.6 mg/kg i.t.
  IL-1α: 2.54 ± 0.59 pg/mL
  MIP-1α: 4.34 ± 1.15 pg/mL
  Neutrophils: 7.7 ± 1.8 ×10^4/ml
[2]; 1.0 mg/kg i.t.
  IL-1α: 2.74 ± 0.64 pg/mL
  MIP-1α: 7.0 ± 1.40 pg/mL
  Neutrophils: 8.5 ± 1.3 ×10^4/ml
[2]; p<0.05 versus vehicle control at 1.0 and 0.6 mg/kg doses, 20-plex Luminex assay
  Inhibition of tobacco-smoke-induced IL-1α and MIP-1α production: exhibited inhibition
[3]
  Metabolism in the lung following IT administration: metabolized to Salmeterol and Desisobutyryl Ciclesonide in the lung
[4]; 6 μg/kg by inhalation
  Pulmonary Resistance (% of Baseline): 266.1 ± 19.6 % of Baseline
[4]; 20 μg/kg by inhalation
  Pulmonary Resistance (% of Baseline): 181.2 ± 11.5 % of Baseline
[5]; Duration of action regimen (last dose 24 hours before carbachol), Ciclesonide 2.2 mg + Salmeterol Xinafoate 2.5 mg
  Lung Resistance (% Increase) at 2% Carbachol: 450 ± 36 % Increase
[5]; Predosing regimen (last dose 1 hr before carbachol)
  Lung Resistance (% Increase) at 2% Carbachol: 335 ± 38 % Increase
[6]; 0.6 mg/kg intratracheal
  TNFα: 293.6 ± 40.6 pg/mL
[6]; 1 mg/kg intratracheal
  TNFα: 361.7 ± 56.6 pg/mL
[6]; 3 mg/kg intratracheal, 1 hour prior to LPS
  Neutrophils: 13.5 ± 0.92 × 10^4/ml
[6]; 3 mg/kg intratracheal
  TNFα: 307.0 ± 60.0 pg/mL
[6]; 6 mg/kg intratracheal
  Neutrophils: 6.4 ± 0.41 × 10^4/ml
[6]; at doses tested, versus vehicle control
  Inhibition of LPS-induced airway inflammation measured as neutrophil influx and TNFα production: significantly inhibit
